# Assay results as given in patent US12472193B2, “Methods and compositions for treating and preventing respiratory related diseases and conditions with xylitol-headgroup lipid analogs” (National Jewish Health, priority 2017, dated 2025).
# Entries after “also recorded” stand apart in the source; their conditions may differ.
# How the values were obtained:
# RSV [1] = assay: Western blot analysis of phospholipid interference with RSV binding to HEp2 cells; assay type: cell-based, human RSV A2 strain; details: 50 μg/mL lipid, MOI 2.5, 2 hr
# Protocol: HEp2 cells were plated in a 48-well plate at a density of 1×10^5 per well, 48-hours prior to performing binding studies. A multiplicity of infection (MOI) of 2.5 was used and conditions of a control with no RSV, RSV alone and RSV plus 50 μg/mL of selected lipids were added to cells for a 2-hour incubation at 18° C. This lower temperature was used so that RSV would adsorb to the cell surface with minimal endocytosis. After binding, cells were washed 4 times with cold PBS to remove any unattached virus. 80 μL of SDS-PAGE loading buffer (sample buffer+protease inhibitor+DTT) was added to each well and the plate was set in boiling water for 1 minute to lyse cells and solubilize proteins. Cell lysates were recovered by scraping and pipteing and stored at −20° C. Subsequently, thawed lysates were boiled for 5 min, and proteins were resolved on 8-16% gradient Tris-SDS-polyacrylamide gels. The separated proteins were transferred to nitrocellulose membranes and subsequently incubated in blocking buffer containing 20 mM Tris-HCl buffer (pH 7.6), 137 mM NaCl, 0.1% Tween 20, and 5% nonfat milk for 1 hour. After blocking, primary RSV antibody conjugated to HRP was diluted 1:500 in blocking solution, added to the membrane and incubated overnight at 4° C. The membranes were washed with TBS containing 0.1% Tween for 30 min, replacing the buffer every 10 min. The immunoreactive protein was detected using coumaric acid and luminol reagents and exposed to film. Developed films were scanned and Image J software was used for protein quantification. Beta-Actin was used a control for amount of protein loaded.
# Because binding of lipid to RSV in a biochemical assay was not a good predictor of antiviral activity, PX lipids were tested for activity preventing viral attachment to the surface of cells. HEp2 cells were plated in a 48-well plate at a density of 1×10^5 per well, 48 hours prior to viral adsorption. RSV was added to cells at multiplicity of infection (MOI) 2.5 in the absence or presence of 50 μg/mL of select xylitol lipids. […] The moderately effective antiviral, DPPX was selected and the ineffective antiviral, 14:0 DEPX was selected. Viral adsorption to cells was performed at 18° C. to minimize endocytosis. RSV was incubated with HEp2 cells for 2 hours, rotating the plate every 30 minutes. Cells were washed with cold PBS to remove unbound virus and cells were lysed and collected. Cell lysates were electrophoresed on an SDS-PAGE gel, and transferred to nitrocellulose membrane. The RSV G protein was detected with antibody and Beta-actin was used as a protein loading control. The results are summarized and quantified in FIGS. 9A and 9B. In more detail, monolayers of HEp2 cells were incubated with RSV at a stoichiometry of 2.5 infectious particles/cell, at 0° C., to prevent endocytosis of virions. Following a 2 hr incubation the monolayers were washed three times with cold saline to remove unbound virus, and then the cells were harvested in a denaturing solution. The cell extracts were subjected to electrophoresis under reducing and denaturing conditions and the separated proteins were transferred to nitrocellulose. Viral proteins were detected by immunoblotting with polyclonal anti-RSV antibody and enhanced chemiluminescence. The immunoreactive bands were normalized using actin immunoblots. The immunoreactive viral proteins were quantified using Image J software. […] In contrast, POPG (PG) inhibits viral attachment by ˜85%, and the xylitol phospholipids 14:0 DEPX, POPX, 16:1 DPPX AND 18:1 DEPX inhibit viral attachment in the range of 80-90%.
# RSV [2] = assay: Quantitative RSV plaque assay in HEp2 cells; assay type: cell-based, human RSV A2 strain; details: for antiviral activity against RSV by plaque assay: 50 μg/mL lipid, HEp2, 37° C.
# Protocol: Viral stocks were propagated in HEp2 cell monolayers using DMEM/Ham's F12 Medium (GIBCO), plus 5% bovine growth serum (Hyclone) with 1× penicillin streptomycin, and virus was purified using methods previously described [M. Numata, H. W. Chu, A. Dakhama, and D. R. Voelker, “Pulmonary surfactant phosphatidylglycerol inhibits respiratory syncytial virus-induced inflammation and infection.,” Proc. Natl. Acad. Sci. U.S.A., vol. 107, no. 1, pp. 320-5, 2010.]. Viral titers and growth were measured by plaque assays [J. L. McKimm-Breschkin, “A simplified plaque assay for respiratory syncytial virus—direct visualization of plaques without immunostaining,” 2004.]. The antiviral activity of xylitol-headgroup lipids was determined by in vitro RSV infection in the presence or absence of lipid and infectious particles were quantified by viral plaque assay. HEp2 cells were plated at a density of 1.8×10^6 per well in a 6 well plate 24 hours prior to infection in order to create a uniform monolayer. Cell monolayers were infected for 2 hours at 37° C. with serial dilutions of RSV alone and RSV in combination with 50 μg/mL of phospholipid. Following the 2-hour period of infection, the inoculum was removed and 3 mL of medium containing 0.3% agarose was added, allowed to solidify and placed in a 37° C. incubator for 6 days. On day 6 the cells were fixed overnight with formalin and then stained with a neutral red stain and viral plaques were quantified visually.
# An optimized quantitative plaque assay (described for RSV by J. L. McKimm-Breschkin, “A simplified plaque assay for respiratory syncytial virus-direct visualization of plaques without immunostaining,” 2004) was applied to survey the ability of PX lipids to inhibit RSV infection. The human epithelial cell line, HEp2, was seeded at a density of 1.8×10^6 per well in a 6-well plate 24 hours in advance of infection. Reaction conditions for infection took place in serum-free medium and were combined before addition to cells. A standard dilution of virus alone was prepared and 50 μg/mL phospholipid in combination with RSV was also prepared. Cells were washed with PBS to remove any serum prior to infection and then 500 μL of virus in various combinations with lipids was added to each well and incubated at 37° C. for 2 hours. Plates were rotated every 20 minutes for even distribution of viral infection. After infection, the viral inoculum was removed and medium containing 0.3% agarose was added to each well and allowed to solidify then placed back into the incubator at 37° C. for 6 days. On day 6, cells were fixed overnight then the agarose layer was removed and wells were stained with neutral red and viral plaques counted. POPG is a known inhibitor of RSV infection in vitro and in vivo. […] Ester-linked saturated xylitol lipids composed the moderately effective antivirals. The sole xylitol analog that was determined ineffective was saturated and ether-linked.
SMILES,inhibition of RSV attachment to HEp2 cells (RSV [1]),antiviral activity against RSV by plaque assay (RSV [2]),inhibition of viral attachment to HEp2 cells (RSV [1]),"reduction of RSV viral infection by a factor of (RSV [2]; 50 μg/ml lipid, 10^4 infectious virus/ml, HEp2)"
"CCCCCCCCCCCCCCCC(=O)OCC(COP(=O)(O)OCC(O)C(O)C(O)CO)OC(=O)CCCCCCCCCCCCCCC (stereo not shown) [DPPX, sn-1-palmitoyl, sn-2-palmitoyl sn-3 glycerol phosphoxylitol]",not inhibited; also recorded: did not,moderate antiviral activity,–,–
"CCCCCCC=CCCCCCCCC(=O)OCC(COP(=O)(O)OCC(O)C(O)C(O)CO)OC(=O)CCCCCCCC=CCCCCCC (mixture of isomers) [16:1 DPPX, sn-1-palmitoleoyl, sn-2-palmitoleoyl sn-3 glycerol phosphoxylitol]",prevented RSV attachment to HEp2 cells,–,–,–
"CCCCCCCCCCCCCCCCCC(=O)OCC(COP(=O)(O)OCC(O)C(O)C(O)CO)OC(=O)CCCCCCCCCCCCCCCCC (stereo not shown) [DSPX, sn-1-stearoyl, sn-2-stearoyl sn-3 glycerol phosphoxylitol]",–,moderate antiviral activity,–,–
"CCCCCCCCCCCCCCOC[C@H](COP(=O)(O)OCC(O)C(O)C(O)CO)OCCCCCCCCCCCCCC (mixture of isomers) [14:0 DEPX, sn-1-O-myristyl, sn-2-O-myristyl sn-3 glycerol phosphoxylitol]",appears to prevent viral binding to cells; also recorded: prevented RSV from binding to the cell surface,ineffective as an antiviral; also recorded: ineffective at preventing RSV infection; also recorded: did not inhibit plaque formation,–,–
"CCCCCCCCCCCCCC(=O)OC[C@H](COP(=O)(O)OCC(O)C(O)C(O)CO)OC(=O)CCCCCCCCCCCCC (mixture of isomers) [DMPX, sn-1-myristoyl, sn-2-myristoyl sn-3 glycerol phosphoxylitol]",–,moderate antiviral activity,–,–
"CCCCCCCC/C=C\CCCCCCCC(=O)O[C@H](COC(=O)CCCCCCCCCCCCCCC)COP(=O)([O-])OCC[N+](C)(C)C [POPC, 1-palmitoyl-2-oleoyl-sn-glycero-3-phosphocholine, reference compound]",not inhibited,ineffective as an antiviral,–,–
"CCCCCCCC/C=C\CCCCCCCC(=O)O[C@H](COC(=O)CCCCCCCCCCCCCCC)COP(=O)(O)OCC(O)C(O)C(O)CO (stereo partly shown) [POPX, sn-1-palmitoyl, sn-2-oleoyly sn-3 glycerol phosphoxylitol]",prevented RSV attachment to HEp2 cells,–,–,–
"CCCCCCCCC=CCCCCCCCC(=O)OCC(COP(=O)(O)OCC(O)C(O)C(O)CO)OC(=O)CCCCCCCC=CCCCCCCCC (mixture of isomers) [DOPX, sn-1-oleoyl, sn-2-oleoyl sn-3 glycerol phosphoxylitol]",inhibit attachment,inhibit infection and propagation of RSV,–,–
"CCCCCCCCC=CCCCCCCCCOCC(COP(=O)(O)OCC(O)C(O)C(O)CO)OCCCCCCCCC=CCCCCCCCC (mixture of isomers) [18:1 DEPX, sn-1-O-octadecenyl, sn-2-O-octadecenyl sn-3 glycerol phosphoxylitol]",inhibit attachment; also recorded: prevented RSV attachment to HEp2 cells,inhibit infection and propagation of RSV,–,–
"CCCCCCCC/C=C\CCCCCCCC(=O)O[C@H](COC(=O)CCCCCCCCCCCCCCC)COP(=O)(O)OCC(O)CO (stereo partly shown) [POPG, palmitoyl-oleoyl-phosphatidylglycerol, reference compound]",–,–,~85%,> 10^4
